Laboratory results reported in patent US9446061B2, “Composition containing antibiotics and lysophosphatidylcholine for boosting immunity or treatment of bacterial infections” (priority 2011, dated 2016).

Experiments:
[1] = test system: CPA-CLP sepsis mouse model; test: Effects of LPC, LPC isomers, Xigris and DW286aa on mortalities/survivabilities in CPA-CLP sepsis mouse model (SEP009); single i.v. 6 hrs after CLP; format: in vivo
Method: (§1) CPA is well known as an immunosuppressive agent. […] Then, the abdomen was closed following the general procedure.
(§2) Then, body weight and mortality changes were observed.
In the Sham and CLP control groups, 10 ml/kg of only sterile physiological saline was single intravenously dosed.

[2] = test system: CPA-CLP sepsis mouse model; test: Combination effects of LPC and antibiotics (colistin, tobramycin, fusidin) in CPA-CLP sepsis mouse model (SEP013); single i.v. 6 hrs after CLP; format: in vivo, ICR mice; settings: mpk: LPC 5, DW286aa 5, Colistin 5, Tobra 4, Fusidin 80, LPC + Colistin 5 + 5, LPC + Tobra 5 + 4, LPC + Fusidin 5 + 80
Description: as §1, §2

[3] = LPC, LPC18:0, LPC18:1, LPA 5 mpk, Xigris 0.4 mpk, DW286aa 10 mpk, 1st CPA treat
[4] = LPC, LPC18:0, LPC18:1, LPA 5 mpk, Xigris 0.4 mpk, DW286aa 10 mpk, 2nd CPA treat
[5] = LPC, LPC18:0, LPC18:1, LPA 5 mpk, Xigris 0.4 mpk, DW286aa 10 mpk, At CLP (day 0)
[6] = LPC, LPC18:0, LPC18:1, LPA 5 mpk, Xigris 0.4 mpk, DW286aa 10 mpk, Day 1
[7] = LPC, LPC18:0, LPC18:1, LPA 5 mpk, Xigris 0.4 mpk, DW286aa 10 mpk, Day 2
[8] = LPC, LPC18:0, LPC18:1, LPA 5 mpk, Xigris 0.4 mpk, DW286aa 10 mpk, Day 3
[9] = LPC, LPC18:0, LPC18:1, LPA 5 mpk, Xigris 0.4 mpk, DW286aa 10 mpk, Day 4
[10] = LPC, LPC18:0, LPC18:1, LPA 5 mpk, Xigris 0.4 mpk, DW286aa 10 mpk, Day 5
[11] = LPC, LPC18:0, LPC18:1, LPA 5 mpk, Xigris 0.4 mpk, DW286aa 10 mpk, Day 6
[12] = LPC, LPC18:0, LPC18:1, LPA 5 mpk, Xigris 0.4 mpk, DW286aa 10 mpk, Day 7
[13] = LPC, LPC18:0, LPC18:1, LPA 5 mpk, Xigris 0.4 mpk, DW286aa 10 mpk, Day 8
[14] = LPC, LPC18:0, LPC18:1, LPA 5 mpk, Xigris 0.4 mpk, DW286aa 10 mpk, Day 9
[15] = LPC, LPC18:0, LPC18:1, LPA 5 mpk, Xigris 0.4 mpk, DW286aa 10 mpk, Day 10
[16] = LPC, LPC18:0, LPC18:1, LPA 5 mpk, Xigris 0.4 mpk, DW286aa 10 mpk, Total
[17] = Xigris 2 mpk, DW286aa 20 mpk, 1st CPA treat
[18] = Xigris 2 mpk, DW286aa 20 mpk, 2nd CPA treat
[19] = Xigris 2 mpk, DW286aa 20 mpk, At CLP (day 0)
[20] = Xigris 2 mpk, DW286aa 20 mpk, Day 1
[21] = Xigris 2 mpk, DW286aa 20 mpk, Day 2
[22] = Xigris 2 mpk, DW286aa 20 mpk, Day 3
[23] = Xigris 2 mpk, DW286aa 20 mpk, Day 4
[24] = Xigris 2 mpk, DW286aa 20 mpk, Day 5
[25] = Xigris 2 mpk, DW286aa 20 mpk, Day 6
[26] = Xigris 2 mpk, DW286aa 20 mpk, Day 7
[27] = Xigris 2 mpk, DW286aa 20 mpk, Day 8
[28] = Xigris 2 mpk, DW286aa 20 mpk, Day 9
[29] = Xigris 2 mpk, DW286aa 20 mpk, Day 10
[30] = Xigris 2 mpk, DW286aa 20 mpk, Total

Compound: 1-oleoyl-2-hydroxy-sn-glycero-3-phosphocholine [LPC18:1]
- Mortalities [1, 3]: 0
- survivabilities [1, 3]: 100%
- Mortalities [1, 4]: 0
- survivabilities [1, 4]: 100%
- Mortalities [1, 5]: 0
- survivabilities [1, 5]: 100%
- Mortalities [1, 6]: 0
- survivabilities [1, 6]: 100%
- Mortalities [1, 7]: 10
- survivabilities [1, 7]: 0%
- Mortalities [1, 8]: 0
- survivabilities [1, 8]: 0%
- Mortalities [1, 9]: 0
- survivabilities [1, 9]: 0%
- Mortalities [1, 10]: 0
- survivabilities [1, 10]: 0%
- Mortalities [1, 11]: 0
- survivabilities [1, 11]: 0%
- Mortalities [1, 12]: 0
- survivabilities [1, 12]: 0%
- Mortalities [1, 13]: 0
- survivabilities [1, 13]: 0%
- Mortalities [1, 14]: 0
- survivabilities [1, 14]: 0%
- Mortalities [1, 15]: 0
- survivabilities [1, 15]: 0%
- Mortalities [1, 16]: 10
- survivabilities [1, 16]: 0%

Compound: CC(=O)O[C@H]1C[C@@]2(C)[C@@H](C[C@@H](O)[C@H]3[C@@]4(C)CC[C@@H](O)[C@@H](C)[C@@H]4CC[C@@]32C)/C1=C(\CCC=C(C)C)C(=O)O [Fusidin, fusidic acid]
- Mortalities ([2]; 1st CPA treat): 0
- Survivalities ([2]; 1st CPA treat): 100%
- Mortalities ([2]; 2nd CPA treat): 0
- Survivalities ([2]; 2nd CPA treat): 100%
- Mortalities ([2]; At CLP (day 0)): 0
- Survivalities ([2]; At CLP (day 0)): 100%
- Mortalities ([2]; Day 1): 2
- Survivalities ([2]; Day 1): 80%
- Mortalities ([2]; Day 2): 5
- Survivalities ([2]; Day 2): 30%
- Mortalities ([2]; Day 3): 1
- Survivalities ([2]; Day 3): 20%
- Mortalities ([2]; Total): 8
- Survivalities ([2]; Total): 20%

Compound: CCCCCCCCCCCCCCCCCC(=O)OC[C@@H](O)COP(=O)([O-])OCC[N+](C)(C)C [LPC18:0]
- Mortalities [1, 3]: 0
- survivabilities [1, 3]: 100%
- Mortalities [1, 4]: 0
- survivabilities [1, 4]: 100%
- Mortalities [1, 5]: 0
- survivabilities [1, 5]: 100%
- Mortalities [1, 6]: 0
- survivabilities [1, 6]: 100%
- Mortalities [1, 7]: 6
- survivabilities [1, 7]: 40%
- Mortalities [1, 8]: 0
- survivabilities [1, 8]: 40%
- Mortalities [1, 9]: 1
- survivabilities [1, 9]: 30%
- Mortalities [1, 10]: 1
- survivabilities [1, 10]: 20%
- Mortalities [1, 11]: 0
- survivabilities [1, 11]: 20%
- Mortalities [1, 12]: 1
- survivabilities [1, 12]: 10%
- Mortalities [1, 13]: 1
- survivabilities [1, 13]: 0%
- Mortalities [1, 14]: 0
- survivabilities [1, 14]: 0%
- Mortalities [1, 15]: 0
- survivabilities [1, 15]: 0%
- Mortalities [1, 16]: 10
- survivabilities [1, 16]: 0%

Compound: NC[C@H]1O[C@H](O[C@H]2[C@H](O)[C@@H](O[C@H]3O[C@H](CO)[C@@H](O)[C@H](N)[C@H]3O)[C@H](N)C[C@@H]2N)[C@H](N)C[C@@H]1O [Tobra, tobramycin]
- Mortalities ([2]; 1st CPA treat): 0
- Survivalities ([2]; 1st CPA treat): 100%
- Mortalities ([2]; 2nd CPA treat): 0
- Survivalities ([2]; 2nd CPA treat): 100%
- Mortalities ([2]; At CLP (day 0)): 0
- Survivalities ([2]; At CLP (day 0)): 100%
- Mortalities ([2]; Day 1): 2
- Survivalities ([2]; Day 1): 80%
- Mortalities ([2]; Day 2): 5
- Survivalities ([2]; Day 2): 30%
- Mortalities ([2]; Day 3): 1
- Survivalities ([2]; Day 3): 20%
- Mortalities ([2]; Total): 8
- Survivalities ([2]; Total): 20%

Compound: colistin
- Mortalities ([2]; 1st CPA treat): 0
- Survivalities ([2]; 1st CPA treat): 100%
- Mortalities ([2]; 2nd CPA treat): 0
- Survivalities ([2]; 2nd CPA treat): 100%
- Mortalities ([2]; At CLP (day 0)): 0
- Survivalities ([2]; At CLP (day 0)): 100%
- Mortalities ([2]; Day 1): 1
- Survivalities ([2]; Day 1): 90%
- Mortalities ([2]; Day 2): 5
- Survivalities ([2]; Day 2): 40%
- Mortalities ([2]; Day 3): 2
- Survivalities ([2]; Day 3): 20%
- Mortalities ([2]; Total): 9
- Survivalities ([2]; Total): 20%

Compound: drotrecogin alfa (activated) [Xigris, reference compound]
- Mortalities [1, 3]: 0
- survivabilities [1, 3]: 100%
- Mortalities [1, 4]: 0
- survivabilities [1, 4]: 100%
- Mortalities [1, 5]: 0
- survivabilities [1, 5]: 100%
- Mortalities [1, 6]: 3
- survivabilities [1, 6]: 70%
- Mortalities [1, 7]: 4
- survivabilities [1, 7]: 30%
- Mortalities [1, 8]: 2
- survivabilities [1, 8]: 10%
- Mortalities [1, 9]: 0
- survivabilities [1, 9]: 10%
- Mortalities [1, 10]: 0
- survivabilities [1, 10]: 10%
- Mortalities [1, 11]: 0
- survivabilities [1, 11]: 10%
- Mortalities [1, 12]: 0
- survivabilities [1, 12]: 10%
- Mortalities [1, 13]: 1
- survivabilities [1, 13]: 0%
- Mortalities [1, 14]: 0
- survivabilities [1, 14]: 0%
- Mortalities [1, 15]: 0
- survivabilities [1, 15]: 0%
- Mortalities [1, 16]: 10
- survivabilities [1, 16]: 0%
- Mortalities [1, 17]: 0
- survivabilities [1, 17]: 100%
- Mortalities [1, 18]: 0
- survivabilities [1, 18]: 100%
- Mortalities [1, 19]: 0
- survivabilities [1, 19]: 100%
- Mortalities [1, 20]: 0
- survivabilities [1, 20]: 100%
- Mortalities [1, 21]: 5
- survivabilities [1, 21]: 50%
- Mortalities [1, 22]: 1
- survivabilities [1, 22]: 40%
- Mortalities [1, 23]: 3
- survivabilities [1, 23]: 10%
- Mortalities [1, 24]: 0
- survivabilities [1, 24]: 10%
- Mortalities [1, 25]: 0
- survivabilities [1, 25]: 10%
- Mortalities [1, 26]: 0
- survivabilities [1, 26]: 10%
- Mortalities [1, 27]: 1
- survivabilities [1, 27]: 0%
- Mortalities [1, 28]: 0
- survivabilities [1, 28]: 0%
- Mortalities [1, 29]: 0
- survivabilities [1, 29]: 0%
- Mortalities [1, 30]: 10
- survivabilities [1, 30]: 0%
